# Experiments:
# [1] = test system: T. castaneum adults; experiment: Repellency bioassay (Examples 2-4); assay type: in vivo, Tribolium castaneum; set-up: key to Repellency: 0 (no effect); +; ++; +++ (strong effect)
# Description: (§1) In order to evaluate the effect of isolated samples or compounds on the behavior of storage insects, three bioassays were conducted: repellency, “choice” and “non-choice” paper perforation bioassays. These bioassays were aimed to uncover two principle activities: repellency and antifeedant activities. Accordingly, the “repellency bioassay” uncovered the sample's capacity to repel insects and the “choice bioassay” uncovered the combined antifeedant and repelling activities. […] Thus, the combined data of all three bioassays enabled determining the antifeedant capacity of the sample.
# The propensity of the tested extracts to repel insects was determined against T. castaneum adults using the methods by Laudani et al. (1955) and McDonald et al. (1970). Accordingly, filter paper strips (Filtrak 3 HW; 10×20 cm) were treated with 4 ml of acetone solutions of turmeric extracts at 50 μg/cm^2 (or any other predetermined concentration). Each treated paper strip was attached lengthwise by Scotch tape on the reverse side, edge to edge, to two untreated 5×20 cm strips, to which acetone alone had been similarly applied. Two glass rings, 2.5 cm high and 6.4 cm i.d., were then placed over the two matched papers so that the joined edges of the papers bisected the rings. Ten adults of the test insect species were then exposed separately on the test arenas inside each glass ring, and their numbers on the treated and untreated halves were recorded every hour for the first eight hours exposure on the first day, and then in the morning of the next day two additional recordings were made for a total of 10 consecutive readings. In each test four replicates were conducted. All tests were performed at 27° C. The average count of all four replicates, each containing 10 reading periods was converted to percent repellency values, as described by Laudani et al. (1955).
# [2] = test system: storage insects; experiment: Penetration prevention (antifeedant) effect judged from combined repellency, choice and non-choice bioassays; assay type: in vivo, Rhyzopertha dominica; set-up: key: 0 (no effect); +; ++; +++ (strong effect); details: at 50 μg/cm^2, 4 arbitrary classes
# Description: as §1
# [3] = test system: storage beetle Tribolium castaneum; details: as long as 8 weeks following application; cited from earlier work
# [4] = test system: several field and storage insects; details: direct application methods; cited from earlier work
# [5] = test system: R. dominica adults; experiment: Non-choice paper perforation bioassay (Examples 2-4); assay type: in vivo, Rhyzopertha dominica; details: 24 hours
# Source text: The device used for the penetration prevention bioassay consisted of two identical open-ended glass cylinders (24 mm i.d., 28 mm o.d., 26 mm height) each with four notches spaced at equal distances around the outer rim. The impregnated office paper and a piece of wire-mesh (US standard No. 25) cut into 28 mm diameter discs were placed together on top of one cylinder. Then the second cylinder was placed over the wire-mesh and the two cylinders were pressed together and held in place by two rubber bands, secured by the notches in the cylinder rims (Navarro et al., 1998). Ten 10-15 d old R. dominica adults were placed inside the top cylinder and were kept in the test devices for […] in a temperature and humidity controlled room. All tests were run at 27° C. and 65% R.H., and there were ten replicates (devices) per test. At the end of each exposure period, the discs were examined on a black surface under a binocular microscope at 15× magnification. The number of perforations appearing as black circles were counted, and a comparative analysis was performed using the Student's t test for residual effect and the differences between control and dosages applied were determined using Dunnet's test (Anon., 1989). […]
# [6] = test system: R. dominica adults; experiment: Choice paper perforation bioassay (Examples 2-4); assay type: in vivo, Rhyzopertha dominica
# Description: as §1
# The same methodology used in the non-choice test was used in this test. However, in choice test, the 28 mm diameter discs of 110 μm thick office paper were divided in half; one side was impregnated with the oil or fraction under test, while the other half was used as a blank and was treated with acetone only. In this test only a 50 microgram sample of the test oil or fraction was applied per cm^2 of paper. […] The number of perforations appearing in the two parts of the disc were counted, and a comparative analysis was performed using the Student's t test for residual effect and the differences between control and dosages applied were determined using Dunnet's test (Anon., 1989).
smiles,measurement,setting,value
"CC(C)=CC(=O)CC(C)c1ccc(C)cc1 (stereo not drawn) [ar-turmerone, 2-methyl-6-(4-methylphenyl)-2-hepten-4-one]",Repellency test (%) (50 μg/cm^2),[1]; 50 μg/cm^2,75%
same,Repellency,"[1]; at 50 μg/cm^2, 4 arbitrary classes",+++
same,ar-turmerone required to achieve 60% repellency,[1]; estimated from concentration-repellency curve (FIG. 2),~32 μg/cm^2
same,Penetration prevention effect,[2],0
same,average repellency,[3],62.9%
same,repellency class,[3],"IV (class IV, 60.1-80%)"
same,concentration at which insecticidal,[4],at least 500 ppm
same,Non-choice test (%) (50 μg/cm^2),[5],−483%
same,Choice Test (%) (50 μg/cm^2),[6],89%
